The assay addresses Mu-type opioid receptor (Homo sapiens, UniProt P35372). It is filed as functional, cell-based, CHO-K1.

Each structure is given as a SMILES string.

Chain of Mu-type opioid receptor (P35372 whole entry): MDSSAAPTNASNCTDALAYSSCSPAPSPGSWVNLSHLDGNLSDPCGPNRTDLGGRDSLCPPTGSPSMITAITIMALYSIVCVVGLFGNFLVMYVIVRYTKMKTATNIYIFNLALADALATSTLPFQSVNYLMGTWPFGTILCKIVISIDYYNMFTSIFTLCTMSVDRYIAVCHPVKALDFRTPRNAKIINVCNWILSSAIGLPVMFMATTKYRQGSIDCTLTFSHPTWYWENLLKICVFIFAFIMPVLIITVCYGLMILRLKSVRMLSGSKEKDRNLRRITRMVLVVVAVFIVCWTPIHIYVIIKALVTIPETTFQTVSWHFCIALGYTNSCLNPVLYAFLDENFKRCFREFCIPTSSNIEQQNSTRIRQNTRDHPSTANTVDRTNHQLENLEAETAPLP
Description: Antagonist activity at human MOR expressed in CHO-K1 cells assessed as reduction in fentanyl induced cAMP production incubated for 30 mins by Lance ultra cAMP assay

Consider `Oc1ccc2c3c1O[C@H]1C(=C(F)F)CC[C@@]4(O)[C@@H](C2)N(CC2CC2)CC[C@]314`, for which the IC50 was 5.1 nM. That is a single-digit nanomolar value.
